In patent US6770669B1, “Amidine derivatives, preparation and use thereof as medicines” (Societe de Conseils de Recherches et d'Applications …, priority 1999, dated 2004):

Columns and labels:
MAO-B = target: T1, MAO-B (Rattus norvegicus, UniProt P19643); test: Effects on the bond of a specific ligand of MAO-B, [3H]Ro 19-6327 (rat cortex mitochondrial preparation); format: binding; conditions: [3H]Ro 19-6327 33 nM, 1 hour at 37° C.
T1 construct: 100 μl of the mitochondrial preparation (2 mg protein/ml) is incubated for 1 hour at 37° C; from tissue; host or cells: rat cortex, mitochondrial fraction
T1 sequence (P19643 1-520): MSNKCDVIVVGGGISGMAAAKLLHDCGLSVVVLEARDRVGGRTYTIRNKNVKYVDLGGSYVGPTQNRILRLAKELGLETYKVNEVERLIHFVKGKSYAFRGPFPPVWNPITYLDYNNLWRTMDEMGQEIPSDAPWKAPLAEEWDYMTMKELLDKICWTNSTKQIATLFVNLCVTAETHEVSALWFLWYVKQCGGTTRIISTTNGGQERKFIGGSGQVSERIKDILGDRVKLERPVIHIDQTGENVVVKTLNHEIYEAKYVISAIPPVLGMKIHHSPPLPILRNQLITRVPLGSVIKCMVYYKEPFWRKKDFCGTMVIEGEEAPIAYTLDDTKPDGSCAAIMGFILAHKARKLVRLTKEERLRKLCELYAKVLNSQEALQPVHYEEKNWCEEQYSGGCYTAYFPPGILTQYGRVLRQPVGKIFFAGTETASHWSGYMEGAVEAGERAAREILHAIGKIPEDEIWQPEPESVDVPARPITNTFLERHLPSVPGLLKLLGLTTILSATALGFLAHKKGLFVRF
Description: Study of the Effects on the Bond of a Specific Ligand of MAO-B, [^3H]Ro 19-6327
The inhibitory activity of the products of the invention is determined by measuring their effects on the bond of a specific ligand of MAO-B, [^3H]Ro 19-6327.
A) Mitochondrial Preparation of the Cortex of Rats
The mitochondrial preparation of the cortex of rats is carried out according to the method described in Cesura A M, Galva M D, Imhof R and Da Prada M, J. Neurochem. 48 (1987), 170-176. The rats are decapitated and their cortex is removed, homogenized in 9 volumes of a 0.32 M sucrose buffer, buffered to pH 7.4 with 5 mM of HEPES, then centrifuged at 800 g for 20 minutes. The supernatants are recovered and the pellets are washed twice with the 0.32 M sucrose buffer as previously. The collected supernatants are centrifuged at 10000 g for 20 minutes. […] The proteinic content of the preparation is determined by the Lowry method.
100 μl of the mitochondrial preparation (2 mg protein/ml) is incubated for 1 hour at 37° C. in an Eppendorf tube, in the presence of 100 μl of [^3H]Ro 19-6327 (33 nM, final concentration) and 100 μl of Tris buffer containing or not containing the inhibitors. […] The radioactivity is determined by counting the samples using liquid scintillation.

[1] = target: T2, neuronal constitutive NO synthase (Rattus norvegicus, UniProt P29476); test: Effects on neuronal constitutive NO synthase of a rat's cerebellum ([3H]L-arginine to [3H]L-citrulline conversion); format: biochemical; conditions: rat cerebellum homogenate; conversion of [3H]L-arginine to [3H]L-citrulline
T2 construct: The reaction is initiated by adding 50 μl of homogenate; from tissue; host or cells: cerebellum of Sprague-Dawley rats (homogenate centrifuged at 21000 g)
Description: Study of the Effects on Neuronal Constitutive NO Synthase of a Rat's Cerebellum
The inhibitory activity of the products of the invention is determined by measuring their effects on the conversion by NO synthase of [^3H]L-arginine to [^3H]L-citrulline according to the modified method of Bredt and Snyder (Proc. Natl. Acad. Sci. USA. (1990) 87: 682-685). The cerebellums of Sprague-Dawley rats (300 g—Charles River) are rapidly removed, dissected at 4° C. and homogenized in a volume of extraction buffer (HEPES 50 mM, EDTA 1 mM, pH 7.4, pepstatin A […], leupeptin […]). The homogenates are then centrifuged at 21000 g for 15 min at 4° C. Dosage is carried out in glass test tubes in which 100 μl of incubation buffer containing 100 mM of HEPES (pH 7.4), 2 mM of EDTA, 2.5 mM of CaCl2, 2 mM of dithiotreitol, 2 mM of reduced NADPH and 10 μg/ml of calmodulin are distributed. 25 μl of a solution containing 100 nM of [^3H]L-arginine (Specific activity: 56.4 Ci/mmole, Amersham) and 40 μM of non-radioactive L-arginine is added. The reaction is initiated by adding 50 μl of homogenate, the final volume being 200 μl (the missing 25 μl are either water or the tested product). […] After passing the samples through a 1 ml column of DOWEX resin, the radioactivity is quantified by a liquid scintillation spectrometer.

Compound: C#CCN(C)Cc1ccc(N=C(N)c2cccs2)cc1 [Example 1, N′-(4-{[methyl(2-propynyl)amino]methyl}phenyl)-2-thiophenecarboximidamide]
- IC50 (MAO-B): < 25 µM
- melting point: 109 to 110 °C
- IC50 [1]: < 3.5 µM
